Test results taken from paper PMC5053573, “Structure-Based Design of Tetrahydroisoquinoline-7-carboxamides as Selective Discoidin Domain Receptor 1 (DDR1) Inhibitors” (Journal of Medicinal Chemistry, 2016).

Legend:
Assay in all cases: biochemical
Details in all cases: read-out: %Ctrl @ 1000nM
PIK3C2G = PIK3C2G (Homo sapiens, UniProt O75747)
HIPK2 = HIPK2 (Homo sapiens, UniProt Q9H2X6)
CAMK4 = CAMK4 (Homo sapiens, UniProt Q16566)
CSF1R = CSF1R (Homo sapiens, UniProt P07333)
[1] = molecular target: ABL1(F317I)-phosphorylated (Homo sapiens, UniProt P00519, F317I)
PDGFRA = PDGFRA (Homo sapiens, UniProt P16234)
IKK-alpha = molecular target: T1, IKK-alpha (Homo sapiens, UniProt O15111)
T1 construct: gene CHUK

PKN2 = PKN2 (Homo sapiens, UniProt Q16513)
MAP4K5 = MAP4K5 (Homo sapiens, UniProt Q9Y4K4)
BRAF(V600E) = BRAF(V600E) (Homo sapiens, UniProt P15056, V600E)
MLCK = molecular target: T2, MLCK (Homo sapiens, UniProt Q32MK0)
T2 construct: gene MYLK3

EPHA2 = EPHA2 (Homo sapiens, UniProt P29317)
JNK3 = molecular target: T3, JNK3 (Homo sapiens, UniProt P53779)
T3 construct: gene MAPK10

TIE1 = TIE1 (Homo sapiens, UniProt P35590)
MET(M1250T) = MET(M1250T) (Homo sapiens, UniProt P08581, M1250T)
[2] = molecular target: T4, RSK4(Kin.Dom.2-C-terminal) (Homo sapiens, UniProt Q9UK32)
T4 construct: gene RPS6KA6

PFTK1 = molecular target: T5, PFTK1 (Homo sapiens, UniProt O94921)
T5 construct: gene CDK14

GSK3B = GSK3B (Homo sapiens, UniProt P49841)
MAP3K15 = MAP3K15 (Homo sapiens, UniProt Q6ZN16)
TGFBR2 = TGFBR2 (Homo sapiens, UniProt P37173)
EPHA4 = EPHA4 (Homo sapiens, UniProt P54764)
MUSK = MUSK (Homo sapiens, UniProt O15146)
DMPK2 = molecular target: T6, DMPK2 (Homo sapiens, UniProt Q6DT37)
T6 construct: gene CDC42BPG

p38-delta = molecular target: T7, p38-delta (Homo sapiens, UniProt O15264)
T7 construct: gene MAPK13

PIK3CB = PIK3CB (Homo sapiens, UniProt P42338)
PIK3CA(E542K) = PIK3CA(E542K) (Homo sapiens, UniProt P42336, E542K)
BMPR1A = BMPR1A (Homo sapiens, UniProt P36894)
KIT(D816V) = KIT(D816V) (Homo sapiens, UniProt P10721, D816V)
BLK = BLK (Homo sapiens, UniProt P51451)
CTK = molecular target: T8, CTK (Homo sapiens, UniProt P42679)
T8 construct: gene MATK

MEK5 = molecular target: T9, MEK5 (Homo sapiens, UniProt Q13163)
T9 construct: gene MAP2K5

NIM1 = molecular target: T10, NIM1 (Homo sapiens, UniProt Q8IY84)
T10 construct: gene NIM1K

DMPK = DMPK (Homo sapiens, UniProt Q09013)
CAMKK2 = CAMKK2 (Homo sapiens, UniProt Q96RR4)
FER = FER (Homo sapiens, UniProt P16591)

HIPK2, sequence (Q9H2X6 whole entry): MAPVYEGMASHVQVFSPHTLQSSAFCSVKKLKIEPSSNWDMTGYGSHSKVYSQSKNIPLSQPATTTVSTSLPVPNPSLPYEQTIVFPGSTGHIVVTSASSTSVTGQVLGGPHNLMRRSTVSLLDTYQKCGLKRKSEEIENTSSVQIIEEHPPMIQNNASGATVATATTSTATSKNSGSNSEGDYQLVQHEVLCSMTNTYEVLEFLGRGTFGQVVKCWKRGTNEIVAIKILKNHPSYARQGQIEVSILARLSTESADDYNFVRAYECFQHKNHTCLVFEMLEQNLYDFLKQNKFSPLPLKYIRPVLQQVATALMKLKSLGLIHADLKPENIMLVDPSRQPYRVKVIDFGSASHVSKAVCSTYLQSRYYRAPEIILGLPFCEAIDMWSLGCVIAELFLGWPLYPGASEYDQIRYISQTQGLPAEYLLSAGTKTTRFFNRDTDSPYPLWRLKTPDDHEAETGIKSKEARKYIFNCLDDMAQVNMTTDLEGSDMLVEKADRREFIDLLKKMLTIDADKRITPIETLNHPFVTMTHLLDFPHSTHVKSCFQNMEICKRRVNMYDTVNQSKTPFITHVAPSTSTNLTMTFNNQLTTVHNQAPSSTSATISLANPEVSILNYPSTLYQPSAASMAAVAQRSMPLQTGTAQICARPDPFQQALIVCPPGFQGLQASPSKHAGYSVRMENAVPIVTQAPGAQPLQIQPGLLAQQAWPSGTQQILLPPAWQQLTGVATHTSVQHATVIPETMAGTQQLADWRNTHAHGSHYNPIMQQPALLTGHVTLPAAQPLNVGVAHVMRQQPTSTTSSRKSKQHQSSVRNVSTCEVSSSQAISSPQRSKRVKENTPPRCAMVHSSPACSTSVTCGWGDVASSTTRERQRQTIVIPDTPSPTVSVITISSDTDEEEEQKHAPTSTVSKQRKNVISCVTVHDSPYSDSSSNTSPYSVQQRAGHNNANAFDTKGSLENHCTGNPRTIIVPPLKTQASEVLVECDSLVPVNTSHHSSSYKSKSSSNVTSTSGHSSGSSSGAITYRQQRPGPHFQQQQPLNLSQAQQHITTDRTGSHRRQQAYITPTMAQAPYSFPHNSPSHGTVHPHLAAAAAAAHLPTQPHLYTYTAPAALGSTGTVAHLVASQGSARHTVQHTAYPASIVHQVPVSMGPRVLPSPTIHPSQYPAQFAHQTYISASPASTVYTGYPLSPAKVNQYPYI
BMPR1A, sequence (P36894 whole entry): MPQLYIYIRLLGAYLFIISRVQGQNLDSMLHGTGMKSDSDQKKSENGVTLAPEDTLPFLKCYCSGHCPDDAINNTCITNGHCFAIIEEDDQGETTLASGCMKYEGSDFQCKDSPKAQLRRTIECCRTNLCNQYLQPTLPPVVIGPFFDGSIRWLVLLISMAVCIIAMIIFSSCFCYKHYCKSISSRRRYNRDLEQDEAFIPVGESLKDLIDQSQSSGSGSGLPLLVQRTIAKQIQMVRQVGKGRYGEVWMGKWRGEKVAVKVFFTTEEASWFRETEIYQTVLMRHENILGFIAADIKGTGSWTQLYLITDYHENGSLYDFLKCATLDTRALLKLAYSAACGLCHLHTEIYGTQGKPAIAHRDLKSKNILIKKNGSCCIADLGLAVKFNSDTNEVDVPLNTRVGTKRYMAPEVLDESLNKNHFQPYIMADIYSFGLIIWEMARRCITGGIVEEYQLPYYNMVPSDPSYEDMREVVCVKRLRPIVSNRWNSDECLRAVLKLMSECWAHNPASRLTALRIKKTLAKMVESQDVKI
MUSK, sequence (O15146 whole entry): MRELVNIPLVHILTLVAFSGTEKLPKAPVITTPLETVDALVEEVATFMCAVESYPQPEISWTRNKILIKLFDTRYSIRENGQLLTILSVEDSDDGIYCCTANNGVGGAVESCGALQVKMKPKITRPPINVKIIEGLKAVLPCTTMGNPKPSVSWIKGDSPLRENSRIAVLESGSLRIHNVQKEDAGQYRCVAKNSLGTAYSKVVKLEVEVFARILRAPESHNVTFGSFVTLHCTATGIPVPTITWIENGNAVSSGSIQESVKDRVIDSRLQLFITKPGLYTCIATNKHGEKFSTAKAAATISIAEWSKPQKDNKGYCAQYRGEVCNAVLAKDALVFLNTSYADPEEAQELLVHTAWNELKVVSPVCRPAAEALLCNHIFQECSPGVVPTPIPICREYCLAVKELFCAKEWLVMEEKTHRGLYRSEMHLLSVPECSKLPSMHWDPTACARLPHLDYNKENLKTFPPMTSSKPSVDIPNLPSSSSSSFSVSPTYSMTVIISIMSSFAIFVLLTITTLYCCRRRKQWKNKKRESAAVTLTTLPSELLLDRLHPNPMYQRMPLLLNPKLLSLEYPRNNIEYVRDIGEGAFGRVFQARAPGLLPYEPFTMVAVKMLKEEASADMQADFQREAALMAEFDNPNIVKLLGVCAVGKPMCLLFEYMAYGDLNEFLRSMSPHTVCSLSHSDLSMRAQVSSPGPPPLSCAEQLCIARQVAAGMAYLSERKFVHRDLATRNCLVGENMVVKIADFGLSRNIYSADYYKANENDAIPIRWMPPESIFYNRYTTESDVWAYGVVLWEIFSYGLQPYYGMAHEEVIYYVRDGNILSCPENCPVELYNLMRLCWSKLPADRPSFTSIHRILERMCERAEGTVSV
T5 sequence (O94921 whole entry): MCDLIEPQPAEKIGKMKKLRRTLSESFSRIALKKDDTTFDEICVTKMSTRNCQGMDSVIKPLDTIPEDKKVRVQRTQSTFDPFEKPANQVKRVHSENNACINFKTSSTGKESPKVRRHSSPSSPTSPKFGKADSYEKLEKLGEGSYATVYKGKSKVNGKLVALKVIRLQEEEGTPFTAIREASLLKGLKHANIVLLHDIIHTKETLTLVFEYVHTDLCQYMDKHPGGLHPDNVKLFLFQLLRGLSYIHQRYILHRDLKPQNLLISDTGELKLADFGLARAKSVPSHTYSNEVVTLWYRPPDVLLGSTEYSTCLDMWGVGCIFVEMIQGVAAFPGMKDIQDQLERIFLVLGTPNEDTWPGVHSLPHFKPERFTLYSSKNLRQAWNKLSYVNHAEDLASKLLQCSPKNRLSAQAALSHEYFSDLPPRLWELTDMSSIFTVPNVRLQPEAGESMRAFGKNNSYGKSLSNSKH
PIK3CB, sequence (P42338 whole entry): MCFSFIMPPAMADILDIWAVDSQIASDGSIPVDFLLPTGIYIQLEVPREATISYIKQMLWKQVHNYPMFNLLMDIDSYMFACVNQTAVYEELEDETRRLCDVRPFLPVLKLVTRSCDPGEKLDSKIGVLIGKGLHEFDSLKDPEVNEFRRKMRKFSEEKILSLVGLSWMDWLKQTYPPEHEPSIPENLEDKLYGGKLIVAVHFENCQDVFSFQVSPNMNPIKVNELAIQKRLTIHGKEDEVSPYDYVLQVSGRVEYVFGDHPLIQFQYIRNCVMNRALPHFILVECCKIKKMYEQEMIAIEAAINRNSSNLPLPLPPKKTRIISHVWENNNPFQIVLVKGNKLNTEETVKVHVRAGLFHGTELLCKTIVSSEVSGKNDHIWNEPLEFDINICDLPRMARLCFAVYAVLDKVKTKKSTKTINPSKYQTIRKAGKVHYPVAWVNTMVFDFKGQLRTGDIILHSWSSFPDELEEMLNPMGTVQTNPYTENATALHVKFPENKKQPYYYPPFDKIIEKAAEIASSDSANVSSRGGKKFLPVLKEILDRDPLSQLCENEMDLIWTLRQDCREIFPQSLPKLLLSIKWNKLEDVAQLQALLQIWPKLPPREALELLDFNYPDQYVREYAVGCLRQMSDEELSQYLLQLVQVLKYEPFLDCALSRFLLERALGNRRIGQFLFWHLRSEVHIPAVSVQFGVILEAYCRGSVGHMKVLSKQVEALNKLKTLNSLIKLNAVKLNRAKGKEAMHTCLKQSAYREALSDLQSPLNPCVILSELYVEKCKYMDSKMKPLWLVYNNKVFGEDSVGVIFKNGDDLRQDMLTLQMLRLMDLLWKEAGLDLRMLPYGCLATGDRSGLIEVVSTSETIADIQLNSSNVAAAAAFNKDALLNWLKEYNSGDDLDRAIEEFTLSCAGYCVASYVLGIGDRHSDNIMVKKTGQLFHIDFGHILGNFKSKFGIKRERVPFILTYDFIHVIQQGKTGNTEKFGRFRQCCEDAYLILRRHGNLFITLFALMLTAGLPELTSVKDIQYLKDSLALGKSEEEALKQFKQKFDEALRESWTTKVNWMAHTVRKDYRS
BRAF(V600E), sequence (P15056 whole entry V600E): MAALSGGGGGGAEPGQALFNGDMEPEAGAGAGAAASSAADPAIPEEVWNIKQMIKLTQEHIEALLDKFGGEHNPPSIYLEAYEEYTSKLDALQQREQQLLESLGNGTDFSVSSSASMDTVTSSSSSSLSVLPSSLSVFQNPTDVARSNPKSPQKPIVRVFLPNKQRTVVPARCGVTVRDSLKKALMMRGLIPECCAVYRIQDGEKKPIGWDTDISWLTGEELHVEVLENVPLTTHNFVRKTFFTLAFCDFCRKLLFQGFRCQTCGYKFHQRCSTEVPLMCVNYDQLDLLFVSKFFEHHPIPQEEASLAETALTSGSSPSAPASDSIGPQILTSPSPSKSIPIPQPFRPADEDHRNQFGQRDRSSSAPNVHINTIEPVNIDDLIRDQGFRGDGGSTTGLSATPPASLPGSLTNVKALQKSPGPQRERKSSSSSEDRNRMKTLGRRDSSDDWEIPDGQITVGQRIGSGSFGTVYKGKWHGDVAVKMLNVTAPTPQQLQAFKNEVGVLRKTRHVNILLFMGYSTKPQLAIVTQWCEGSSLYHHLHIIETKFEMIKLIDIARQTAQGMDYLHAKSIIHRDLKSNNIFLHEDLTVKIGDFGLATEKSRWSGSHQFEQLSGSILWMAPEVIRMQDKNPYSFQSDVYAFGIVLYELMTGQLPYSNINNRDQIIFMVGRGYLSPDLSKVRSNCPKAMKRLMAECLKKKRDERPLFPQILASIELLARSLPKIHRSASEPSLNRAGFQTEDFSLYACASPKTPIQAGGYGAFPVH

## Cc1cn(-c2cc(NC(=O)c3ccc4c(c3)CN(c3cncnc3)C[C@@H]4C)cc(C(F)(F)F)c2)cn1 [Compound 6j]
PIK3C2G
  remaining activity at 1 µM: 86%
HIPK2
  remaining activity at 1 µM: 100%
CAMK4
  remaining activity at 1 µM: 86%
CSF1R
  remaining activity at 1 µM: 96%
[1]
  remaining activity at 1 µM: 82%
PDGFRA
  remaining activity at 1 µM: 100%
IKK-alpha
  remaining activity at 1 µM: 100%
PKN2
  remaining activity at 1 µM: 95%
MAP4K5
  remaining activity at 1 µM: 95%
BRAF(V600E)
  remaining activity at 1 µM: 100%
MLCK
  remaining activity at 1 µM: 92%
EPHA2
  remaining activity at 1 µM: 65%
JNK3
  remaining activity at 1 µM: 100%
TIE1
  remaining activity at 1 µM: 74%
MET(M1250T)
  remaining activity at 1 µM: 84%
[2]
  remaining activity at 1 µM: 74%
PFTK1
  remaining activity at 1 µM: 94%
GSK3B
  remaining activity at 1 µM: 94%
MAP3K15
  remaining activity at 1 µM: 100%
TGFBR2
  remaining activity at 1 µM: 94%
EPHA4
  remaining activity at 1 µM: 77%
MUSK
  remaining activity at 1 µM: 31%
DMPK2
  remaining activity at 1 µM: 100%
p38-delta
  remaining activity at 1 µM: 70%
PIK3CB
  remaining activity at 1 µM: 100%
PIK3CA(E542K)
  remaining activity at 1 µM: 100%
BMPR1A
  remaining activity at 1 µM: 93%
KIT(D816V)
  remaining activity at 1 µM: 77%
BLK
  remaining activity at 1 µM: 68%
CTK
  remaining activity at 1 µM: 100%
MEK5
  remaining activity at 1 µM: 100%
NIM1
  remaining activity at 1 µM: 100%
DMPK
  remaining activity at 1 µM: 100%
CAMKK2
  remaining activity at 1 µM: 72%
FER
  remaining activity at 1 µM: 92%
